This note sets out measurements from patent publication US20240277642A1, “POLYMERIZED VALPROIC ACID AND USE THEREOF” (UNIVERSITY OF TSUKUBA, priority 2021, published 2024).

This data set in a line: toxicity evaluation by changes in body weight. To be noted: intraperitoneal, 500 mg/kg for 5 days; FIG. 6. The data set is classed as in vivo, mice. The protocol:
To evaluate the toxicity of VPA and Nano^VPA, VPA and Nano^VPA were intraperitoneally administered at a dose of 500 mg/kg for 5 days, and changes in body weight of the mice were observed.

For `CCCC(CCC)C(=O)O` [VPA, valproic acid], the “changes in body weight” value is reported as “a decrease in body weight”.
